Results on twelve molecules are retold here after ChEMBL document CHEMBL1201862, “PubChem BioAssay data set” (2004).

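Protocol summary: plate cells (96-well), add compound at 5 concentrations, incubate 48 h, interpolate endpoints linearly. GI50 marks 50% less growth.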 Active and inactive are the calls of the source. Rule as the data show it: active = GI50 up to about 1.1 µM and inactive = higher.

Test systems include 786-0; NCI-H226; OVCAR-4; K562; NCI-H522; DU-145; OVCAR-8; M14; PC-3; RXF 393; A549; SK-MEL-28; HCC 2998; SW-620; COLO 205; KM12; HOP-92; UO-31; SR.
Assay in all cases: growth of human tumour cells (NCI), 48 h

Consider `N/C(=N\O)N/N=C/c1cc(I)cc(I)c1O`, for which the GI50 in the assay with 786-0 was 22.2 µM (inactive); in the assay on NCI-H226 it was 0.627 µM (active); in the assay on OVCAR-4, 27.6 µM (inactive); in the assay with K562, 43.2 µM (inactive); in the assay with NCI-H522, 80.5 µM (inactive); in the assay on DU-145, 31.6 µM (inactive). Moreover, the GI50 was 27.9 µM (inactive) in the assay on OVCAR-8; 19 µM (inactive) in the assay on M14; 37.2 µM (inactive) in the assay with PC-3; 24.5 µM (inactive) in the assay with RXF 393; 49.3 µM (inactive) in the assay on A549; 49.2 µM (inactive) in the assay with SK-MEL-28. For the same molecule, the GI50 with HCC 2998 is 61.9 µM (inactive); in the assay with SW-620, > 100 µM (inactive); in the assay with COLO 205, 27 µM (inactive); in the assay with KM12, > 100 µM (inactive).
`[BH3-][P+]1(CC[P@@+]([BH3-])(c2ccccc2)c2ccccc2OC)[C@@H](C)[C@@H](O)[C@H](O)[C@@H]1C` (stereo partly drawn): the GI50 with 786-0 is 27.2 µM (inactive); in the assay with NCI-H226, 17.3 µM (inactive); with OVCAR-4, 16.8 µM (inactive); in the assay with K562 it was 26.1 µM (inactive); in the assay on NCI-H522, 12.4 µM (inactive); with DU-145 it was 17.3 µM (inactive). The GI50 with HOP-92 is 16.6 µM (inactive); with OVCAR-8, 17.5 µM (inactive); with UO-31, 10.1 µM (inactive); in the assay with M14, 16.7 µM (inactive); in the assay on PC-3, 15 µM (inactive); in the assay on RXF 393, 16.4 µM (inactive). Further, the GI50 is 14.1 µM (inactive) in the assay with A549; 17.9 µM (inactive) in the assay on SK-MEL-28; 16.9 µM (inactive) with SW-620; 17.8 µM (inactive) with COLO 205; 15.8 µM (inactive) in the assay with KM12.
In the case of `O=C1Oc2ccccc2C(=O)/C1=C/NC(=S)NCc1ccccc1`, the GI50 was 64.1 µM (inactive) with 786-0; > 100 µM (inactive) in the assay with NCI-H226; 73.8 µM (inactive) in the assay on OVCAR-4; 93.1 µM (inactive) in the assay with DU-145; > 100 µM (inactive) with HOP-92; 41.1 µM (inactive) in the assay on OVCAR-8. For the same molecule, the GI50 in the assay with UO-31 was 16.2 µM (inactive); with M14, 75 µM (inactive); with PC-3, 54.3 µM (inactive); in the assay on A549 it was 65.2 µM (inactive); in the assay with SK-MEL-28 it was > 100 µM (inactive); with HCC 2998 it was 72.4 µM (inactive). Besides, the GI50 with SW-620 is 99.1 µM (inactive); in the assay with COLO 205 it was > 100 µM (inactive); with KM12, 51.6 µM (inactive).
Regarding `O=c1c(C(c2cnc3ccccc3c2)c2c(O)oc3ccccc3c2=O)c(O)oc2ccccc12`, the GI50 is 44.5 µM (inactive) with 786-0; 23.1 µM (inactive) with NCI-H226; 33.7 µM (inactive) with OVCAR-4; 35.4 µM (inactive) in the assay with K562; 36.1 µM (inactive) in the assay on NCI-H522; > 100 µM (inactive) in the assay with DU-145. For the same molecule, the GI50 in the assay on HOP-92 was 20.2 µM (inactive); with OVCAR-8, 33 µM (inactive); in the assay with UO-31, 29.4 µM (inactive); in the assay with PC-3, 48.5 µM (inactive); in the assay on SK-MEL-28, 25.9 µM (inactive); in the assay on SW-620 it was 29.6 µM (inactive). For the same molecule, the GI50 in the assay with COLO 205 is 60.7 µM (inactive); in the assay on KM12 it was 37.4 µM (inactive).
As to `N#CCCN(CCC#N)c1ccc(/C=C2\N=C(c3ccccc3)N(NC(N)=S)C2=O)cc1`, the GI50 in the assay with 786-0, in the assay with NCI-H226, in the assay on OVCAR-4, in the assay on K562, with DU-145 and in the assay with HOP-92 was > 100 µM (inactive) throughout. Further, the GI50 in the assay on OVCAR-8, in the assay on UO-31, in the assay with M14, in the assay on PC-3, in the assay with RXF 393 and in the assay with A549 was > 100 µM (inactive) in each case. Moreover, the GI50 is > 100 µM (inactive) in the assay with SK-MEL-28, > 100 µM (inactive) with SW-620, > 100 µM (inactive) with COLO 205 and 12.9 µM (inactive) in the assay on KM12.
Take `CC(Br)C(=O)c1ccc2cc(Br)c3ccccc3c2c1` (stereo not drawn): the GI50 in the assay on 786-0 is 3.34 µM (inactive); in the assay with OVCAR-4 it was 16.7 µM (inactive); in the assay with SR, 3.15 µM (inactive); in the assay on K562, 4.18 µM (inactive); in the assay with NCI-H522 it was 3.97 µM (inactive); with DU-145, 16.5 µM (inactive). In addition, the GI50 in the assay with HOP-92 was 16.4 µM (inactive); in the assay on OVCAR-8 it was 14 µM (inactive); in the assay on UO-31, 17.6 µM (inactive); in the assay with M14, 16.1 µM (inactive); in the assay on RXF 393 it was 15.4 µM (inactive); with A549, 20 µM (inactive). Further, the GI50 was 18.6 µM (inactive) in the assay on SK-MEL-28, 15.7 µM (inactive) in the assay with HCC 2998, 6.01 µM (inactive) in the assay on SW-620 and 17.2 µM (inactive) in the assay with KM12.
On to `Fc1sc2c(c1F)C1CCC2C1` (stereo not drawn), for which the GI50 with 786-0 is > 100 µM (inactive); in the assay on NCI-H226, > 100 µM (inactive); with OVCAR-4, > 100 µM (inactive); with NCI-H522, > 100 µM (inactive); in the assay with DU-145 it was 85.7 µM (inactive); in the assay on HOP-92, > 100 µM (inactive). The GI50 in the assay with OVCAR-8 was > 100 µM (inactive); in the assay with UO-31, 54 µM (inactive); with M14 it was > 100 µM (inactive); with PC-3 it was 75.7 µM (inactive); in the assay on RXF 393, 88.1 µM (inactive); with A549 it was > 100 µM (inactive). The GI50 in the assay on SK-MEL-28 was > 100 µM (inactive); in the assay with HCC 2998, > 100 µM (inactive); in the assay with SW-620 it was > 100 µM (inactive); in the assay on COLO 205 it was 43.2 µM (inactive); in the assay with KM12, > 100 µM (inactive).
In the case of `CCOC(=O)/C(C(=O)Nc1ccc(F)cc1)=C(/N)N1CCCC1`, the GI50 with 786-0, in the assay on NCI-H226, in the assay with OVCAR-4, with K562, in the assay on NCI-H522 and in the assay on DU-145 was > 100 µM (inactive) each time. Besides, the GI50 in the assay on OVCAR-8, in the assay on M14, with PC-3, with RXF 393, in the assay on A549 and in the assay on SK-MEL-28 was > 100 µM (inactive) throughout. The GI50 with HCC 2998, with SW-620, with COLO 205 and in the assay on KM12 was > 100 µM (inactive) in each case.
Regarding `COC(=O)[C@H]1COC(=O)N1`, the GI50 in the assay with 786-0, with NCI-H226, in the assay with OVCAR-4, in the assay with K562, with NCI-H522 and with DU-145 was > 100 µM (inactive) throughout. For the same molecule, the GI50 in the assay on HOP-92, in the assay with OVCAR-8, in the assay with UO-31, in the assay with M14, with RXF 393 and in the assay with A549 was > 100 µM (inactive) throughout. Also, the GI50 with SK-MEL-28, with HCC 2998, in the assay with SW-620, in the assay with COLO 205 and in the assay on KM12 was > 100 µM (inactive) each time.
As to `COc1cc2c[n+]3c4c(c2c(OC)c1OC)CCCC4CC3` (stereo not drawn), the GI50 in the assay on 786-0 is > 100 µM (inactive); with OVCAR-4 it was > 100 µM (inactive); in the assay on K562, 62.4 µM (inactive); in the assay with NCI-H522 it was 30.8 µM (inactive); with DU-145 it was > 100 µM (inactive); in the assay with HOP-92 it was > 100 µM (inactive). For the same molecule, the GI50 in the assay with UO-31, with M14, with PC-3, in the assay on RXF 393, in the assay on A549 and with SK-MEL-28 was > 100 µM (inactive) in each case. The GI50 in the assay with HCC 2998 was 98.4 µM (inactive); with SW-620, > 100 µM (inactive); with COLO 205 it was > 100 µM (inactive); in the assay on KM12, 30.1 µM (inactive).
With `Cc1nc(C)c(Cc2ccccc2)o1`, the GI50 with 786-0, in the assay on NCI-H226, in the assay on OVCAR-4, with K562, with NCI-H522 and with DU-145 was > 100 µM (inactive) each time. For the same molecule, the GI50 is > 100 µM (inactive) with OVCAR-8; 47.6 µM (inactive) in the assay on UO-31; > 100 µM (inactive) with M14; > 100 µM (inactive) in the assay with PC-3; > 100 µM (inactive) in the assay on RXF 393; > 100 µM (inactive) in the assay with A549. Moreover, the GI50 in the assay on SK-MEL-28, in the assay with HCC 2998, in the assay on SW-620, with COLO 205 and with KM12 was > 100 µM (inactive) throughout.
Consider `OC1OC(c2ccco2)C(F)(F)C(F)(F)C1(F)F` (stereo not drawn), for which the GI50 was > 100 µM (inactive) with 786-0; > 100 µM (inactive) in the assay on NCI-H226; 43.2 µM (inactive) in the assay with OVCAR-4; > 100 µM (inactive) with K562; > 100 µM (inactive) in the assay with DU-145; 38 µM (inactive) in the assay with HOP-92. In addition, the GI50 in the assay on OVCAR-8 is > 100 µM (inactive); in the assay with UO-31 it was 59.6 µM (inactive); in the assay on M14 it was > 100 µM (inactive); in the assay with PC-3 it was > 100 µM (inactive); in the assay on RXF 393, > 100 µM (inactive); in the assay with A549, 74 µM (inactive). The GI50 in the assay with SK-MEL-28 is > 100 µM (inactive); in the assay with SW-620, > 100 µM (inactive); in the assay with COLO 205, 82.6 µM (inactive); in the assay with KM12 it was 19.9 µM (inactive).
